Source: US20240132457A1, “3-(2-(BENZO[D]THIAZOL-2-YL)-2-(PHENYLSUFONAMIDO)ETHYL)BENZIMIDAMIDE DERIVATIVES AND RELATED COMPOUNDS AS TMPRSS2 INHIBITORS FOR THE TREATMENT OF VIRAL INFECTIONS” (INTEGERBIO, INC., priority 2020, published 2024)

Legend:
Format in all cases: biochemical
Furin = Furin (Homo sapiens, UniProt P09958); experiment: Non-TMPRSS2 protease panel: Furin; settings: 10-dose, 3-fold from 10 μM
Description: (§1) Biochemical activity of compound 1 (racemic mixture, batch 1), compound 3 (racemic), compound 11, and compound 2 (enantiomer 1, batch 1) in proteases indicated in Table 21, Table 22, Table 23, and Table 24, respectively, were measured by testing the compounds in a 10-dose IC50 with a 3-fold series dilution starting at 10 μM against the proteases. The protease activities were monitored as a time-course measurement of the increase in fluorescence signal from fluorescently-labeled peptide substrate, and initial linear portion of slope (signal/min) was analyzed. The curve fits were performed when the activities at the highest concentration of compounds were less than 65%.

Mpro = biological target: T1, Mpro (Severe acute respiratory syndrome coronavirus 2, UniProt P0DTD1); experiment: Non-TMPRSS2 protease panel: Mpro; settings: 10-dose, 3-fold from 10 μM
T1 construct: MMP 14, Mpro, Plasma Kallikrein
Description: as §1

Kallikrein 14 = biological target: T2, Kallikrein 14 (Homo sapiens, UniProt Q9P0G3); experiment: Non-TMPRSS2 protease panel: Kallikrein 14; settings: 10-dose, 3-fold from 10 μM
T2 sequence (Q9P0G3 25-251): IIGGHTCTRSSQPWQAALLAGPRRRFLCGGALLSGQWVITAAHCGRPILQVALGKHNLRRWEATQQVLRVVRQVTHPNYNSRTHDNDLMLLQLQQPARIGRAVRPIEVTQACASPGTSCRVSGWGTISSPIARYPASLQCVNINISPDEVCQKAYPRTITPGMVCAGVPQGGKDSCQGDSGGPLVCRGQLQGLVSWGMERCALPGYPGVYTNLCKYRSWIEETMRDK
Description: as §1

MMP 1 = biological target: T3, MMP 1 (Homo sapiens, UniProt P03956); experiment: Non-TMPRSS2 protease panel: MMP 1; settings: 10-dose, 3-fold from 10 μM
T3 sequence (P03956 100-469): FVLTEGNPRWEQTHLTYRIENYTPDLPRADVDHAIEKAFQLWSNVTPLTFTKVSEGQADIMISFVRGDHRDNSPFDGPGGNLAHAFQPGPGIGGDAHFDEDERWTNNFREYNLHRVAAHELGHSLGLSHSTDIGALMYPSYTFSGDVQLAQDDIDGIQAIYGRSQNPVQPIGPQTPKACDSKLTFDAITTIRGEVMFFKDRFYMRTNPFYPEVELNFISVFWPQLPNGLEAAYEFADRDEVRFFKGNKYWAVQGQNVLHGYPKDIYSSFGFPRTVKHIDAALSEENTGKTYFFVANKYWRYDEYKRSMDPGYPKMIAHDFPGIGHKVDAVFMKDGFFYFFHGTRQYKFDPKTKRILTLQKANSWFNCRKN
Description: as §1

Kallikrein 12 = biological target: T4, Kallikrein 12 (Homo sapiens, UniProt Q9UKR0); experiment: Non-TMPRSS2 protease panel: Kallikrein 12; settings: 10-dose, 3-fold from 10 μM
T4 sequence (Q9UKR0 18-248): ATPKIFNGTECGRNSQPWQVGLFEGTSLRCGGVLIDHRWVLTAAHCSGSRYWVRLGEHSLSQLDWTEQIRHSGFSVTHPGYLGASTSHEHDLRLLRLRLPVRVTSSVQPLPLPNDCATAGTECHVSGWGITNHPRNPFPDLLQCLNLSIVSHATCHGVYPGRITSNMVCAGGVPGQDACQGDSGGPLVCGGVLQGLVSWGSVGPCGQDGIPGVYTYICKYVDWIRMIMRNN
Description: as §1

[1] = biological target: T5, Recombinant human TMPRSS2 protein (106-492 aa) (Homo sapiens, UniProt O15393); experiment: TMPRSS2 Assay 1 (Example 41), fluorogenic Boc-Gln-Ala-Arg-AMC cleavage; settings: TMPRSS2 10 nM, substrate 25 μM, 20 min pre-incubation
T5 construct: Human TMPRSS2-(AA 106-492)-; purchased CusaBio CSB-YP023924HU; host or cells: yeast
T5 sequence (O15393 106-492): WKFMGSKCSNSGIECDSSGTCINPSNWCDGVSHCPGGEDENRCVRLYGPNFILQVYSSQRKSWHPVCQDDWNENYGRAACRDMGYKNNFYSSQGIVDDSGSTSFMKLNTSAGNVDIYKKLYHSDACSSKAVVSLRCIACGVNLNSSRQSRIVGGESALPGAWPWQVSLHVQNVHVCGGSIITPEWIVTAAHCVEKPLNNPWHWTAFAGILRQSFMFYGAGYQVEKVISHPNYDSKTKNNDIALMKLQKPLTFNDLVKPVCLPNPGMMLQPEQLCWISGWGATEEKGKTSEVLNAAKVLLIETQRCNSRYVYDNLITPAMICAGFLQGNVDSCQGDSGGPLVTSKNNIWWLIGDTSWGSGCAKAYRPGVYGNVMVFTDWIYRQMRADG
Description: The enzyme (TMPRSS2, CusaBio cat #CSB-YP023924HU. Recombinant human TMPRSS2 protein (106-492 aa)N-terminal 6×His-tagged (“6×His” disclosed as SEQ ID NO: 4), expressed in yeast cells; MW=44.8 kDa, lyophilized from 20 mM: Tris HCl, 0.5 M NaCl, 6% Trehalose, pH 8.0, >85% purity as determined by SDS-PAGE. Uniprot: 015393; 10 nM in the reaction) and substrate (Boc-Gln-Ala-Arg-AMC; Enzo Cat #BML-P237-0005, MW=581.76 Da. 25 μM in the reaction) were prepared in Reaction Buffer (50 mM Tris-HCl pH 8, 150 mM NaCl, 0.005% Brij35, 1% DMSO). After the enzyme solution was delivered into the reaction well, the compounds in DMSO were delivered to the reaction mixture by using Acoustic Technology (Echo 550, LabCyte Inc. Sunnyvale, CA) in nanoliter range. After 20 min pre-incubation, the substrate solution was delivered into the reaction well to initiate the reaction. The enzyme activities were monitored every 5 min as a time-course measurement of the increase in fluorescence signal from fluorescently-labeled peptide substrate for 120 min. at room temperature. Data was analyzed by taking slope*(signal/time) of linear portion of measurement. The slope was calculated using Excel, and the curve fits were performed using Prism software.

Matriptase 2 = biological target: T6, Matriptase 2 (Homo sapiens, UniProt Q8IU80); experiment: Non-TMPRSS2 protease panel: Matriptase 2; settings: 10-dose, 3-fold from 10 μM
T6 sequence (Q8IU80 1-811): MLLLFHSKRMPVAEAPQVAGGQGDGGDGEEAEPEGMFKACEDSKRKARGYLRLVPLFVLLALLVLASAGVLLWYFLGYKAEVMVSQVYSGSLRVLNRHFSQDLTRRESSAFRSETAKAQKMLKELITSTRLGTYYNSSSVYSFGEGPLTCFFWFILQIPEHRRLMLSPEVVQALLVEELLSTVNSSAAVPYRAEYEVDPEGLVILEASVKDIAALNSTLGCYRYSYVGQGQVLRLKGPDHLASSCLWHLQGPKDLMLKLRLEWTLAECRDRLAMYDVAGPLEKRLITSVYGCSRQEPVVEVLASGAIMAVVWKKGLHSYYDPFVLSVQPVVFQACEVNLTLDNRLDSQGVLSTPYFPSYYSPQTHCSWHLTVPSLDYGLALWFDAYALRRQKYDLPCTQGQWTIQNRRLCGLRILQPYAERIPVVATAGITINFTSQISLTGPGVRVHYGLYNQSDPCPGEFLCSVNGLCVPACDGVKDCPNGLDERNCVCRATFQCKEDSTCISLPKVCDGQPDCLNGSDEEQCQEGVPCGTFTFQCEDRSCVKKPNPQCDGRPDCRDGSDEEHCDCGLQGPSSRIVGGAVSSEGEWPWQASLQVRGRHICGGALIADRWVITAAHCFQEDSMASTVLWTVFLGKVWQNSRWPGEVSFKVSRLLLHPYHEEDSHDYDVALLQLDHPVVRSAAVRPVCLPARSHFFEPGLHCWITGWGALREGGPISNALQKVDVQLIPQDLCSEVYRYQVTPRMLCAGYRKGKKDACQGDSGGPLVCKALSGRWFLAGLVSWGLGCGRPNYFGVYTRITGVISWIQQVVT
Description: as §1

Kallikrein 7 = Kallikrein 7 (Homo sapiens, UniProt P49862); experiment: Non-TMPRSS2 protease panel: Kallikrein 7; settings: 10-dose, 3-fold from 10 μM
Chain of Kallikrein 7 (P49862 30-253): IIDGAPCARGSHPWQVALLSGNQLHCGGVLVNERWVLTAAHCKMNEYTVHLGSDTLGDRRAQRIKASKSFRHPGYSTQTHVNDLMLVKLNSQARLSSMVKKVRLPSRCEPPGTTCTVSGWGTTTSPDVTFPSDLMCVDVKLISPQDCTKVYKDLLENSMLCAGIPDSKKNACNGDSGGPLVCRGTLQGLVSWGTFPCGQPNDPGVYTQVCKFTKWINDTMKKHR
Description: as §1

Urokinase = Urokinase (Homo sapiens, UniProt P00749); experiment: Non-TMPRSS2 protease panel: Urokinase; settings: 10-dose, 3-fold from 10 μM
Description: as §1

Chain of Furin (P09958 108-794): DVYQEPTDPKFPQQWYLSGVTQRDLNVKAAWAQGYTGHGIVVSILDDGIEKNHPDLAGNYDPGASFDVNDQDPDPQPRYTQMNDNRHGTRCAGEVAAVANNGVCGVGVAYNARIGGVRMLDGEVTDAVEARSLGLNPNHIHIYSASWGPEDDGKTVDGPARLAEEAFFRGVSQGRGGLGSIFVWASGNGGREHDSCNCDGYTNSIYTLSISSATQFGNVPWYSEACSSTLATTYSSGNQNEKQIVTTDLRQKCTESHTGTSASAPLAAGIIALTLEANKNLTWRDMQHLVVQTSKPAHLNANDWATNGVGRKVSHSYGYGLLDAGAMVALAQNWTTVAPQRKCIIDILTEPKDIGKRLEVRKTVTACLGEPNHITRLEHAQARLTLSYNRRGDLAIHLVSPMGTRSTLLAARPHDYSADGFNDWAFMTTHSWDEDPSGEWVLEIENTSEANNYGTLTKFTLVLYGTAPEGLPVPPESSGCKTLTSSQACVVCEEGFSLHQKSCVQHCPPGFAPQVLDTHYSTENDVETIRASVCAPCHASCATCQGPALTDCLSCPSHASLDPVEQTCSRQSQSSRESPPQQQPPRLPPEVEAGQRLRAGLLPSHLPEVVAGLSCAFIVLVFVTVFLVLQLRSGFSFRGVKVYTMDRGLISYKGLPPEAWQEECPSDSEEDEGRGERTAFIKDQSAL

SMILES: N=C(N)c1cccc(CC(NS(=O)(=O)c2ccccc2)c2nc3ccccc3s2)c1 (racemic) [1 (racemic mixture, batch 1), 3-[2-Benzenesulfonamido-2-(1,3-benzothiazol-2-yl)ethyl]benzene-1-carboximidamide]
- IC50 (Furin): > 10 µM
- IC50 (Mpro): > 10 µM
- IC50 (Kallikrein 14): > 10 µM
- IC50 (MMP 1): > 10 µM
- IC50 (Kallikrein 12): > 10 µM
- IC50 [1]: < 10 µM
- IC50 (Matriptase 2): > 10 µM
- IC50 (Kallikrein 7): > 10 µM
- IC50 (Urokinase): > 10 µM

SMILES: N=C(N)c1cccc(CC(NS(=O)(=O)c2cccc(-c3ccc(Cl)cc3Cl)c2)c2nc3ccccc3s2)c1 (racemic) [3 (racemic), 3-[2-(1,3-Benzothiazol-2-yl)-2-{2′,4′-dichloro-[1,1′-biphenyl]-3-sulfonamido}ethyl]benzene-1-carboximidamide]
- IC50 (Furin): > 10 µM
- IC50 (Mpro): > 10 µM
- IC50 (Kallikrein 14): > 10 µM
- IC50 (MMP 1): > 10 µM
- IC50 (Kallikrein 12): > 10 µM
- IC50 [1]: < 10 µM
- IC50 (Matriptase 2): > 10 µM
- IC50 (Kallikrein 7): > 10 µM
- IC50 (Urokinase): > 10 µM

SMILES: N=C(N)c1cccc(C[C@H](NS(=O)(=O)c2ccccc2)c2nnco2)c1 (single isomer, unassigned) [Compound 2 (enantiomer 1, batch 1), 3-[2-Benzenesulfonamido-2-(1,3,4-oxadiazol-2-yl)ethyl]benzene-1-carboximidamide]
- IC50 (Furin): > 10 µM
- IC50 (Mpro): > 10 µM
- IC50 (Kallikrein 14): > 10 µM
- IC50 (MMP 1): > 10 µM
- IC50 (Kallikrein 12): > 10 µM
- IC50 [1]: > 10 µM
- IC50 (Matriptase 2): > 10 µM
- IC50 (Kallikrein 7): > 10 µM
- IC50 (Urokinase): > 10 µM

SMILES: COc1ccc2nc(C(Cc3cccc(C(=N)N)c3)NS(=O)(=O)c3ccccc3)sc2c1 (centres unmarked) [Compound 11, 3-[2-Benzenesulfonamido-2-(6-methoxy-1,3-benzothiazol-2-yl)ethyl]benzene-1-carboximidamide]
- IC50 (Furin): > 10 µM
- IC50 (Mpro): > 10 µM
- IC50 (Kallikrein 14): > 10 µM
- IC50 (MMP 1): > 10 µM
- IC50 (Kallikrein 12): > 10 µM
- IC50 (Matriptase 2): < 10 µM
- IC50 (Kallikrein 7): > 10 µM
- IC50 (Urokinase): < 10 µM
